Columns and labels:
[1] = system: A-549 (human pulmonary adenocarcinoma); experiment: Inhibition of cell proliferation (MTT), A-549; format: cell-based; details: 48 h of treatment (footnote), average ±SD of three experiments
Description: (§1) The ability of the synthetic compounds to inhibit cell proliferation was established by means of their IC50 values towards the tumor cell lines HT-29 (human colon adenocarcinoma), MCF-7 (breast adenocarcinoma) and A-549 (human pulmonary adenocarcinoma), as well as towards the nontumor cell line HEK-293 (human embryonic kidney cells). Results for compounds derived from CA-4 are presented in Table 1, along with the calculated selectivity indexes SIA (for HT-29 cell line), SIB (for MCF-7 cell line) and SIc (for A-549 cell line), obtained by dividing the IC50 values of the nontumor cell line (HEK-293) by those of the corresponding tumor cell line. The higher the SI index, the higher the therapeutic safety margin.
Cell culture media were purchased from Gibco (Grand Island, NY, USA). Fetal bovine serum (FBS) was a product of Harlan-Seralab (Belton, U.K.). Supplements and other chemicals not listed in this section were obtained from Sigma Chemical Co. (St. Louis, MO, USA). Plastics for cell culture were supplied by Thermo Fischer Scientific Inc., Madrid, Spain. All tested compounds were dissolved in DMSO at a concentration of 10 μg/mL and stored at −20 °C until use. HT-29, MCF-7, A-549 and HEK-293 cell lines were maintained in a Dulbecco’s modified Eagle’s medium (DMEM) containing glucose (1 g/L), glutamine (2 mM), penicillin (50 IU/mL), streptomycin (50 μg/mL) and amphotericin B (1.25 μg/mL), supplemented with 10% FBS. Cells from human non-small lung carcinoma (clone A549; ATCC n°: CCL2, MD, USA) were routinely grown at 37 °C in a humidified atmosphere of 5% CO2. Cells were maintained in a standard medium composed of RPMI 1640 (Lonza, Group Ltd., Basel, Switzerland), supplemented with 10% fetal bovine serum (FBS), 2 mM L-glutamine and 1% penicillin and streptomycin (Invitrogen). Cells were free from mycoplasma as determined by MycoAlert tests (Lonza, Group Ltd., Basel, Switzerland). […]

[2] = system: HEK-293 (human embryonic kidney cells); experiment: Inhibition of cell proliferation (MTT), nontumor HEK-293; format: cell-based; details: Homo sapiens, 48 h of treatment (footnote), average ±SD of three experiments
Description: as §1
(§2) Cell culture media were purchased from Gibco (Grand Island, NY, USA). Fetal bovine serum (FBS) was a product of Harlan-Seralab (Belton, U.K.). Supplements and other chemicals not listed in this section were obtained from Sigma Chemical Co. (St. Louis, MO, USA). Plastics for cell culture were supplied by Thermo Fischer Scientific Inc., Madrid, Spain. All tested compounds were dissolved in DMSO at a concentration of 10 μg/mL and stored at −20 °C until use. HT-29, MCF-7, A-549 and HEK-293 cell lines were maintained in a Dulbecco’s modified Eagle’s medium (DMEM) containing glucose (1 g/L), glutamine (2 mM), penicillin (50 IU/mL), streptomycin (50 μg/mL) and amphotericin B (1.25 μg/mL), supplemented with 10% FBS. Cells from human non-small lung carcinoma (clone A549; ATCC n°: CCL2, MD, USA) were routinely grown at 37 °C in a humidified atmosphere of 5% CO2. Cells were maintained in a standard medium composed of RPMI 1640 (Lonza, Group Ltd., Basel, Switzerland), supplemented with 10% fetal bovine serum (FBS), 2 mM L-glutamine and 1% penicillin and streptomycin (Invitrogen). Cells were free from mycoplasma as determined by MycoAlert tests (Lonza, Group Ltd., Basel, Switzerland).
(§3) A total of 5 × 10^3 HT-29, MCF-7 or HEK-293 cells in a total volume of 100 μL of their respective growth media were incubated with serial dilutions of the tested compounds. The 3-(4,5-dimethylthiazol-2-yl)-2,5-diphenyltetrazolium bromide (MTT; Sigma Chemical Co.) dye reduction assay in a 96-well microplate was used, as previously described. […] The resulting formazan was dissolved in 150 μL of 0.04 N HCl/2-propanol and read at 550 nm. All determinations were carried out in triplicate.

[3] = system: HT-29 (human colon adenocarcinoma); experiment: Inhibition of cell proliferation (MTT), HT-29; format: cell-based; details: Homo sapiens, 48 h of treatment (footnote), average ±SD of three experiments
Description: as §1, §2, §3

purified tubulin = experiment: Critical concentration (CrC) for the assembly of purified tubulin in GAB; format: biochemical; details: compound 27.5 μM, tubulin 25 μM, glycerol (GAB) and GTP assembly buffer; control 7.9 ± 1.2
Description: The effect on the self-assembly of tubulin was determined by measuring the critical concentration (CrC).

[4] = system: MCF-7 (breast adenocarcinoma); experiment: Inhibition of cell proliferation (MTT), MCF-7; format: cell-based, human; details: Homo sapiens, 48 h of treatment (footnote), average ±SD of three experiments
Description: as §1, §2, §3

A-549 cells = experiment: Cell cycle distribution by flow cytometry; format: cell-based, human; details: A-549, 24 h; for cells accumulated in the G2/M phase: concentration per compound as in Tables 6 and 7, control 14%
Description: The effects of some CA-4 derivatives on the cell cycle were evaluated in A-549 cells.
The effects of some AmCA-4 derivatives on the cell cycle were also evaluated in A-549 cells.
The supernatant and trypsinated cells were harvested and then centrifuged (1200 rpm, 5 min, 4 °C). The cell pellet was resuspended in 1 mL of cold 70% ethanol for 30 min at −20 °C. Cells were centrifuged (2000 rpm, 5 min, 4 °C) to remove ethanol, and then the cell pellet was resuspended in the staining mix containing 50 µg/mL propidium iodide (Molecular Probes, France) and 100 µg/mL RNAse A (Sigma, France) in PBS for 20 min at room temperature in darkness. Samples were analyzed on a Becton Dickinson FACScan flow cytometer using the CellQuest software, which was also used to determine the percentage of cells in the G2/M phases of the cell cycle. PI was excited at 488 nm, and fluorescence analyzed at 620 nm on channel Fl-2.

[5] = Homo sapiens, A549, 48 h, Table 2
[6] = Homo sapiens, A549, 48 h, Table 1

SMILES	IC50 [1, 5]	IC50 ([2]; HEK293, 48 h, Table 2)	IC50 ([3]; HT-29, 48 h, Table 2)	CrC (critical concentration) (purified tubulin)	IC50 ([4]; MCF7, 48 h, Table 2)	IC50 [1, 6]	IC50 ([2]; HEK293, 48 h, Table 1)	IC50 ([3]; HT-29, 48 h, Table 1)	IC50 ([4]; MCF7, 48 h, Table 1)	also measured
COc1ccc(/C=C\c2cc(OC)c(OC)c(OC)c2)cc1NC(=O)[C@H](NC(=O)OCC1c2ccccc2-c2ccccc21)C(C)C [Compound 9.1]	7.34 ± 0.23 µM	5.1 ± 0.7 µM	5.5 ± 0.7 µM	8.9 ± 1.5 µM	4.8 ± 0.5 µM	–	–	–	–	–
COC(=O)[C@H](CO)NC(=O)COc1cc(/C=C\c2cc(OC)c(OC)c(OC)c2)ccc1OC [Compound 3.6]	–	–	–	–	–	18 ± 4 µM	7 ± 2 µM	9 ± 3 µM	7 ± 3 µM	G0/G1 (A-549 cells; 75 μM): 30 ± 9%; G2/M (A-549 cells; 75 μM): 53 ± 3%; S (A-549 cells; 75 μM): 17 ± 6%; cells accumulated in the G2/M phase (A-549 cells): 50–70%
COC(=O)[C@@H](CC(C)C)NC(=O)COc1cc(/C=C\c2cc(OC)c(OC)c(OC)c2)ccc1OC [Compound 5.2]	–	–	–	–	–	22 ± 3 µM	13 ± 3 µM	26 ± 1 µM	16 ± 3 µM	G0/G1 (A-549 cells; 100 μM): 43 ± 4%; G2/M (A-549 cells; 100 μM): 34 ± 1%; S (A-549 cells; 100 μM): 23 ± 4%
COc1ccc(/C=C\c2cc(OC)c(OC)c(OC)c2)cc1NC(=O)[C@@H]1CCCN1 [Compound 8.6]	1.2 ± 0.3 µM	2.4 ± 1.4 µM	0.7 ± 0.2 µM	8.4 ± 0.1 µM	3.1 ± 0.6 µM	–	–	–	–	–
COC(=O)[C@H](NC(=O)COc1cc(/C=C\c2cc(OC)c(OC)c(OC)c2)ccc1OC)C(C)C [Compound 5.1]	–	–	–	–	–	< 10 µM	3.9 ± 0.6 µM	27 ± 7 µM	9 ± 3 µM	IC50 ([1]; Table 1): 5 ± 1 µM; G0/G1 (A-549 cells; 25 μM): 53 ± 8%; G2/M (A-549 cells; 25 μM): 31 ± 7%; S (A-549 cells; 25 μM): 16 ± 2%
COC(=O)[C@@H](CO)NC(=O)COc1cc(/C=C\c2cc(OC)c(OC)c(OC)c2)ccc1OC [Compound 5.5]	–	–	–	9.2 ± 0.9 µM	–	28 ± 1 µM	9 ± 3 µM	11 ± 2 µM	7 ± 2 µM	cells accumulated in the G2/M phase (A-549 cells): 50–70%
COc1ccc(/C=C\c2cc(OC)c(OC)c(OC)c2)cc1NC(=O)[C@@H](CC(C)C)NC(=O)OCC1c2ccccc2-c2ccccc21 [Compound 9.2]	48 ± 3 µM	2.4 ± 0.4 µM	44 ± 6 µM	6.5 ± 0.7 µM	3.1 ± 0.5 µM	–	–	–	–	–
COc1ccc(/C=C\c2cc(OC)c(OC)c(OC)c2)cc1OCC(=O)N[C@H](C(=O)O)C(C)O (stereo partly shown) [Compound 4.7]	–	–	–	10.1 ± 1.8 µM	–	41 ± 3 µM	23 ± 9 µM	34 ± 11 µM	40 ± 9 µM	–
COc1ccc(/C=C\c2cc(OC)c(OC)c(OC)c2)cc1OCC(=O)N[C@@H](Cc1ccc(O)cc1)C(=O)O [Compound 4.8]	–	–	–	8.5 ± 2.0 µM	–	30 ± 7 µM	–	–	–	IC50 ([2]; HEK293, Table 1): 33 ± 1 µM; IC50 ([3]; HT-29, Table 1): 55 ± 5 µM; IC50 ([4]; MCF7, Table 1): 43 ± 7 µM
COC(=O)CNC(=O)COc1cc(/C=C\c2cc(OC)c(OC)c(OC)c2)ccc1OC [Compound 3.1]	–	–	–	9.52 ± 0.05 µM	–	26 ± 2 µM	9 ± 1 µM	12 ± 2 µM	8 ± 2 µM	–
COc1ccc(/C=C\c2cc(OC)c(OC)c(OC)c2)cc1OCC(=O)N[C@@H](CO)C(=O)O [Compound 4.6]	–	–	–	7.9 ± 1.6 µM	–	36 ± 4 µM	17 ± 1 µM	39 ± 16 µM	27 ± 9 µM	–
COC(=O)[C@H](CCSC)NC(=O)COc1cc(/C=C\c2cc(OC)c(OC)c(OC)c2)ccc1OC [Compound 3.9]	–	–	–	8.06 ± 0.04 µM	–	< 10 µM	–	–	–	IC50 ([1]; Table 1): 10 ± 2 µM; G0/G1 (A-549 cells; 75 μM): 47 ± 4%; G2/M (A-549 cells; 75 μM): 36 ± 1%; S (A-549 cells; 75 μM): 17 ± 3%; IC50 ([2]; HEK293, Table 1): 8 ± 1 µM; IC50 ([3]; HT-29, Table 1): 16 ± 7 µM; IC50 ([4]; MCF7, Table 1): 10 ± 3 µM
COc1ccc(/C=C\c2cc(OC)c(OC)c(OC)c2)cc1NC(=O)[C@@H]1CCCN1C(=O)OCC1c2ccccc2-c2ccccc21 [Compound 7.6]	1.33 ± 0.09 µM	0.13 ± 0.03 µM	0.32 ± 0.14 µM	6.0 ± 0.5 µM	0.058 ± 0.012 µM	–	–	–	–	–
COC(=O)[C@@H](Cc1ccccc1)NC(=O)COc1cc(/C=C\c2cc(OC)c(OC)c(OC)c2)ccc1OC [Compound 5.3]	–	–	–	–	–	10 ± 3 µM	3.7 ± 1.6 µM	12 ± 4 µM	6 ± 1 µM	G0/G1 (A-549 cells; 50 μM): 38 ± 2%; G2/M (A-549 cells; 50 μM): 43 ± 1%; S (A-549 cells; 50 μM): 19 ± 2%
COc1ccc(/C=C\c2cc(OC)c(OC)c(OC)c2)cc1NC(=O)[C@@H](Cc1ccccc1)NC(=O)OCC1c2ccccc2-c2ccccc21 [Compound 9.3]	18.5 ± 1.7 µM	11.2 ± 1.5 µM	13 ± 5 µM	6.6 ± 0.2 µM	4.5 ± 1.7 µM	–	–	–	–	–
COC(=O)[C@H](Cc1ccccc1)NC(=O)COc1cc(/C=C\c2cc(OC)c(OC)c(OC)c2)ccc1OC [Compound 3.4]	–	–	–	–	–	< 10 µM	4 ± 1 µM	28 ± 7 µM	8 ± 2 µM	IC50 ([1]; Table 1): 9 ± 2 µM; G0/G1 (A-549 cells; 50 μM): 33 ± 4%; G2/M (A-549 cells; 50 μM): 51 ± 2%; S (A-549 cells; 50 μM): 16 ± 5%; cells accumulated in the G2/M phase (A-549 cells): 50–70%
COc1ccc(/C=C\c2cc(OC)c(OC)c(OC)c2)cc1NC(=O)[C@H]1CCCN1 [Compound 10.4]	7.03 ± 0.22 µM	3 ± 0.6 µM	4.4 ± 1.9 µM	8.7 ± 1.2 µM	0.6 ± 0.14 µM	–	–	–	–	–
COc1ccc(/C=C\c2cc(OC)c(OC)c(OC)c2)cc1NC(=O)[C@H](N)Cc1ccccc1 [Compound 10.3]	2.9 ± 0.5 µM	3.5 ± 0.9 µM	3.9 ± 0.8 µM	7.7 ± 2.1 µM	2 ± 0.8 µM	–	–	–	–	–
